The text below walks through data of PMC10298275, “Antiproliferative Activity and Impact on Human Gut Microbiota of New O-Alkyl Derivatives of Naringenin and Their Oximes” (International Journal of Molecular Sciences, 2023).

The term MIC denotes the least concentration at which growth counts as inhibited. Higher therefore signals a less susceptible organism. In general, MBC refers to the smallest concentration meeting the test's criterion for killing. Lower therefore signals more potent killing. The term IC50 denotes the midpoint of a concentration-inhibition curve.

Values after ≈ are worked out from the molar mass of the structure shown.

Data set [1] deals with Escherichia coli K12. Kind of data set: MIC, microdilution method. The format is cell-based. The conditions noted are these: E. coli K12; MHB, 18 h, 37 °C; tested 512 to 1 µg/mL.
The test system of data set [2] is Staphylococcus aureus ATCC 25923. Kind of data set: MIC, microdilution method. The format is cell-based. The conditions noted are these: S. aureus ATCC 25923; MHB, 18 h, 37 °C; tested 512 to 1 µg/mL. (In broth dilution the organism is exposed to a series of concentrations in liquid medium.)
Data set [3] has as its system Enterococcus faecalis ATCC 29212. Kind of data set: MIC, microdilution method. The conditions noted are these: E. faecalis ATCC 29212; MHB, 24 h, 37 °C; tested 512 to 1 µg/mL. The format is cell-based.
Data set [4] relates to Escherichia coli K12. Kind of data set: MBC assay. The class given is cell-based. The conditions noted are these: E. coli K12.
The subject of data set [5] is Staphylococcus aureus ATCC 25923. Kind of data set: MBC assay. The class given is cell-based. The conditions noted are these: S. aureus ATCC 25923.
The test system of data set [6] is Enterococcus faecalis ATCC 29212. The data set can be described thus: MBC assay. The class given is cell-based. The conditions noted are these: E. faecalis ATCC 29212.
Data set [7] has as its system HT-29 cells. Kind of data set: RealTime-Glo Annexin V Apoptosis and Necrosis Assay. The format is cell-based, human. The conditions noted are these: HT-29, during 12 h incubation, applied concentrations 10-100 µg/mL. The protocol:
The process of apoptosis was determined using the RealTime-Glo Annexin V Apoptosis and Necrosis Assay (Promega) according to the manufacturer’s protocol. Briefly, 1 × 10^4 HT-29 cells were seeded into a single well of a 96-well plate. After overnight incubation, the cells were treated with 10, 25, 50 and 100 µg/mL of the investigated compounds and detection reagent for 24 h. As a negative control, untreated cells were used. The luminescence, fluorescence and OD525 signals were detected at each hour of the first 12 h of incubation. The end measurement was performed at the 24th hour of the experiment. All samples were prepared in triplicate, and then their means were calculated.

Data set [8] relates to HT-29 cells. Further details: method as in earlier work. The conditions noted are these: ref 29 (Kocyigit et al.); cited from earlier work.
Data set [9] relates to HT-29 cells. Kind of data set: SRB assay, cytotoxicity. The class given is cell-based, human. The conditions noted are these: HT-29, SRB, 24 h exposure, three independent repeats.
The test system of a further data set is 3T3-L1 cells. Kind of data set: SRB assay, cytotoxicity. The conditions noted are these: 3T3-L1, SRB, 24 h exposure, three independent repeats. The format is cell-based, mouse. On the technique in general: The SRB assay estimates cell density from bound dye.
The test system of data set [10] is HT-29 cells. The data set can be described thus: MTT assay, cell viability. The class given is cell-based, human. The conditions noted are these: HT-29, MTT, 100 µg/mL, 24 h. Background: Tetrazolium dyes change colour on reduction, which living cells bring about.

`O/N=C1\CC(c2ccc(O)cc2)Oc2cc(O)cc(O)c21` (centres unmarked) [NGOX, naringenin oxime, reference compound]: the MIC against Escherichia coli K12 [1] is 512 µg/mL (≈ 1780 µM); in [2] it was more than 512 µg/mL; in data set [3] it was 512 µg/mL (≈ 1780 µM). Further, the minimum bactericidal concentration (MBC) (with Escherichia coli K12 [4]; in data set [5]; in data set [6]) was more than 512 µg/mL throughout. In addition, in the data set with HT-29 cells [7], the “annexin V luminescence and necrosis fluorescence signals versus untreated cells” value is “both signals were similar to those for untreated cells”. Also, the IC50 in the data set on HT-29 cells [8] is 175 µg/mL (≈ 609 µM). For the same compound, the “Cytotoxicity (IC50 ± SD)” value is on record as more than 100 µg/mL in the data set on HT-29 cells [9] and 29.18 ± 2.00 µg/mL with 3T3-L1 cells. Also, in the data set with HT-29 cells [10], the “reduction in cell viability” value was “more than 50%”.
